Measured values reported in US6413969B1, “Gatifloxacin pentahydrate” (Bristol-Myers Squibb Company, priority 2000, dated 2002).

Tests used:
[1] = cited from earlier work
[2] = aqueous solubility of the crystalline hydrates; assay type: physicochemical; conditions: for aqueous solubility (rank among the three major hydrates): water, 25° C., sesquihydrate, pentahydrate, hexahydrate compared
Description: (§1) The crystal structures and ideal water content of seven of these forms were established through single crystal x-ray analyses. Each form gives rise to unique and characteristic single crystal and powder x-ray diffraction. The kinetic and thermodynamic relationships among the three major hydrates were investigated leading to the understanding of their stability order in water as a function of temperature and their interconversion relationship. […] The implications of these findings were very significant in the discovery and development of highly homogeneous gatifloxacin pentahydrate in accordance with the present invention. Further, these findings made it evident that very strict process controls were necessary in the production of crystalline gatifloxacin and dosage forms containing it and that it was necessary to obtain crystalline gatifloxacin pentahydrate in high homogeneity vs. the other crystalline forms in order to realize the advantageous properties thereof. By high homogeneity is meant that crystalline gatifloxacin pentahydrate must contain no detectable levels of the other crystalline forms thereof as determined by powder x-ray diffraction technique.

[3] = physical stability / interconversion of crystalline forms in water; assay type: physicochemical
Description: as §1

[4] = system: broad spectrum of microorganisms including antibiotic-resistant strains of Streptococcus Pneumoniae; conditions: cited from earlier work
infections = conditions: cited from earlier work
[5] = parenterally and via oral administration; cited from earlier work
[6] = stability studies under stressed conditions of temperature and humidity; assay type: physicochemical
Description: It has been found in accordance with the present invention that the advantageous stability and solubility properties of the pentahydrate of gatifloxacin can be applied to the formulation of pharmaceutical dosage forms. While the pentahydrate of gatifloxacin can be utilized to prepare tablets by wet granulation, it can also be formulated in accordance with the present invention into stable pharmaceutical solid dosage forms by conventional dry granulation. […] Such formulations will include conventional inert ingredients such as binders, excipients, disintegrants, and the like. Examples of such agents include various starch derivatives such as pregelatinized starch, hydroxypropyl cellulose microcrystalline cellulose, sodium starch glycolate, magnesium stearate, lactose, mannitol and the like.

For `COc1c(N2CCNC(C)C2)c(F)cc2c(=O)c(C(=O)O)cn(C3CC3)c12` (stereo not drawn) [sesquihydrate], the “disintegration and dissolution rates of tablets in comparison to the hemihydrate” value ([1]; tablets made from the crystalline form) is given as “superior disintegration and dissolution rates”, the “stability in comparison to the hemihydrate” value ([1]; varying conditions of humidity) is given as “enhanced stability” and the “aqueous solubility (rank among the three major hydrates)” value [2] is given as “highest”.

For `COc1c(N2CCNC(C)C2)c(F)cc2c(=O)c(C(=O)O)cn(C3CC3)c12` (stereo not drawn) [hemihydrate], the “tendency to form higher hydrates” value ([3]; in the presence of water) was “definite tendency to form higher hydrates”.

For `COc1c(N2CCNC(C)C2)c(F)cc2c(=O)c(C(=O)O)cn(C3CC3)c12` (stereo not drawn) [Gatifloxacin, 1-cyclopropyl-6-fluoro-1,4-dihydro-8-methoxy-7-(3-methyl-1piperizinyl)-4-oxo-3-quinolinecarboxylic acid], the effectiveness against microorganisms [4] is given as “effective”, the overall tolerability (infections; in vivo) is given as “excellent overall tolerability” and the “safety and efficacy in treatment of infections” value (infections; individuals with impaired liver function) is given as “safe and efficacious”. The efficacy [5] was “excellent efficacy”.

With `COc1c(N2CCNC(C)C2)c(F)cc2c(=O)c(C(=O)O)cn(C3CC3)c12` (stereo not drawn) [gatifloxacin pentahydrate, 1cyclopropyl-6-fluoro-1,4-dihydro-8-methoxy-7-(3-methyl-1-piperazinyl)-4-oxo-3-quinolinecarboxylic acid] the “form change or other degradation” value [6] was “no evidence of form change or other degradation”, the “solubility compared with the metastable sesquihydrate” value ([2]; aqueous dosage forms) was “less soluble” and the “aqueous solubility (rank among the three major hydrates)” value ([2]; listed as pentahydrate) was “lowest”. The “physical stability of the crystalline form” value ([3]; compared with the other crystalline forms, conversion over time) was “most physically stable form”.
